# Values of other authors as cited in patent US8524198B2, “Xylitol dental maintenance system” (priority 2003, dated 2013).
# Legend:
# [1] = 976 children aged 6-12 years, 2 years; for 2-year DMFS increment: partial substitution of sucrose by xylitol (X group) vs systemic fluoride (F group)
# dental plaque = dental plaque in vivo
# oral microorganisms = conditions: pure cultures of oral microorganisms in vitro
# [2] = 3-year field study; partial substitution of sucrose by xylitol (X group)
SMILES,ratio (RS) between caries incidence and the tooth surface population at risk [1],2-year DMFS increment [1],metabolized into acids (dental plaque),metabolized into acids (oral microorganisms),"oral hygiene conditions, final vs base-line [2]"
F [fluoride],5.5,4.8,–,–,–
OC[C@@H](O)[C@H](O)[C@@H](O)CO [xylitol],4.5,3.8,not metabolized into acids,not metabolized into acids,definite improvement
